Assay results from patent publication US20140018361A1, “IRAK INHIBITORS AND USES THEREOF” (Nimbus Iris, Inc., priority 2012, published 2014).
Counter-ions that a name gives are not always drawn.

target: T1, IRAK4 (Homo sapiens, UniProt Q9NWZ3); test: IRAK-4 activity inhibition assay (Caliper); type: biochemical; conditions: 3.5 nM IRAK4, 1.5 μM Peptide 8, 37 μM ATP, 28° C., 40 minutes
T1 construct: purchased CARNA Bioscience 09-145
T1 sequence (Q9NWZ3 1-460): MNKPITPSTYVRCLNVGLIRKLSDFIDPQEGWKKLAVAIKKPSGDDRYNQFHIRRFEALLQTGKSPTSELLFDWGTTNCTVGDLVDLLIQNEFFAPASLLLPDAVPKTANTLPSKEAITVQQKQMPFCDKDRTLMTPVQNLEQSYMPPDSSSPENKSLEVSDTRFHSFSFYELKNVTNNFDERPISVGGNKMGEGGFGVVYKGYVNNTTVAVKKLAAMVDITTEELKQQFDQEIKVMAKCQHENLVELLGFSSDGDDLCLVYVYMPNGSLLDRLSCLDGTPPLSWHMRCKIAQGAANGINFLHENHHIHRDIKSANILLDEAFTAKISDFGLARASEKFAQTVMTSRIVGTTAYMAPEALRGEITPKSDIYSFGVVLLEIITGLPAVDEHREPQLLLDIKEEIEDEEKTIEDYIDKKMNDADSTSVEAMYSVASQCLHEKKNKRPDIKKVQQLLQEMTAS
Experimental: A 1× kinase base buffer was prepared from 50 mM HEPES, pH 7.5 and 0.0015% Brij-35. A stop buffer was prepared from 100 mM HEPES, pH 7.5, 0.015% Brij-35, 0.2% Coating Reagent #3, and 50 mM EDTA.
Test compound was diluted to 50× of the final desired highest inhibitor concentration in reaction by 100% DMSO. 100 ul of this compound dilution was transferred to a well in a 96-well plate.
Test compound was serially diluted by transferring 30 μl to 60 μl of 100% DMSO in the next well and so forth for a total of 10 concentrations. 100 μl of 100% DMSO was added to two empty wells for no compound control and no enzyme control in the same 96-well plate.
A new 96-well plate was marked as intermediate plate. 5 μl of compound serial dilution was transferred from source plate to the corresponding wells of the intermediate plate. 45 μl of 1× kinase base buffer (KB buffer) was added to each well of the intermediate plate. The intermediate plate was placed for 10 min on a shaker.
5 μl of each well was transferred from the 96-well intermediate plate to a 384-well plate in duplicates. For example, A1 of the 96-well plate is transferred to A1 and A2 of the 384-well plate. A2 of the 96-well plate is transferred to A3 and A4 of the 384-well plate, and so on.
IRAK4 and DTT in 1× kinase base buffer was added. The 2.5× enzyme mix contained 8.8 nM IRAK4 and 5 mM DTT.
Peptide 8, ATP, MgCl2 and MnCl2 were added in the 1× kinase base buffer. The 2.5× peptide mix contained 3.75 μM peptide 8, 92.5 μM ATP, 12.5 mM MgCl2 and 2.5 mM MnCl2.
Assay plate already contained 5 μl of compound in 10% DMSO. Added 10 μl of 2.5× enzyme solution to each well of the 384-well assay plate, except no enzyme control wells. The final concentration of IRAK4 in reaction was 3.5 nM. Added 10 μl of 1× kinase base buffer to no enzyme control wells in the assay plate. Incubated at room temperature for 10 min.
Added 10 μl of 2.5× peptide solution to each well of the 384-well assay plate. The final concentration of Peptide 8 and ATP was 1.5 μM and 37 μM, respectively. Incubated at 28° C. for 40 minutes. Added 25 μl of stop buffer to stop reaction. Collected data on Caliper.
Copied conversion % data from Caliper program. Converted conversion % values to percent inhibition values. Percent inhibition=(max−conversion %)/(max−min)*100, where “max” means the conversion % of DMSO control and “min” means the conversion % of no enzyme control.

Row | IC50 [nM] | SMILES
1 | ≥ 10000 | CN(C)[C@H]1CC[C@H](Oc2ncnc3occc23)CC1 [Compound I-14, trans-4-(furo[2,3-d]pyrimidin-4-yloxy)-N,N-dimethylcyclohexanamine formate]
2 | 100 to 1000 | CN(C)[C@H]1CC[C@H](Nc2nc(Nc3ccccc3)nc3[nH]ccc23)CC1 [Compound I-2, 4-N-[4-(dimethylamino)cyclohexyl]-2-N-phenyl-7H-pyrrolo[2,3-d]pyrimidine-2,4-diamine]
3 | 100 to 1000 | CN(C)[C@H]1CC[C@H](Nc2ncnc3[nH]cc(F)c23)CC1 [Compound I-3, (trans)-N^1-(5-fluoro-7H-pyrrolo[2,3-d]pyrimidin-4-yl)-N^4,N^4-dimethylcyclohexane-1,4-diamine]
4 | 1000 to 10000 | N#Cc1c[nH]c2ncnc(O[C@H]3CC[C@H](N4CCOCC4)CC3)c12 [Compound I-7, 4-(trans-(4-morpholinocyclohexyl)oxy)-7H-pyrrolo[2,3-d]pyrimidine-5-carbonitrile]
5 | 1000 to 10000 | Fc1c[nH]c2ncnc(O[C@H]3CC[C@H](N4CCOCC4)CC3)c12 [Compound I-6, 4-((trans)-4-((5-fluoro-7H-pyrrolo[2,3-d]pyrimidin-4-yl)oxy)cyclohexyl)morpholine]
6 | 1000 to 10000 | CN(C)[C@H]1CC[C@H](Oc2ncnc3[nH]cc(F)c23)CC1 [Compound I-4, (trans)-4-((5-fluoro-7H-pyrrolo[2,3-d]pyrimidin-4-yl)oxy)-N,N-dimethylcyclohexanamine]
7 | ≥ 10000 | CN(C)[C@H]1CC[C@H](Nc2ncnc3occc23)CC1 [Compound I-12, N^1-(furo[2,3-d]pyrimidin-4-yl)-trans-N^4,N^4-dimethylcyclohexane-1,4-diamine formate]
8 | 1000 to 10000 | CN(C)[C@H]1CC[C@H](Oc2ncnc3[nH]cc(C#N)c23)CC1 [Compound I-5, 4-[[4-(dimethylamino)cyclohexyl]oxy]-7H-pyrrolo[2,3-d]pyrimidine-5-carbonitrile]
9 | ≥ 10000 | N[C@H]1CC[C@H](Nc2ncnc3oc4c(c23)CCC4)CC1 [Compound I-11, N^1-(6,7-dihydro-5H-cyclopenta[4,5]furo[2,3-d]pyrimidin-4-yl)-trans-cyclohexane-1,4-diamine]
10 | 1000 to 10000 | CN(C)[C@H]1CC[C@H](Nc2ncnc3oc4c(c23)CCC4)CC1 [Compound I-10, N,N-dimethyl-4-N-[7-oxa-9,11-diazatricyclo[6.4.0.0[2,6]]dodeca-1(12),2(6),8,10-tetraen-12-yl]-trans-cyclohexane-1,4-diamine]
11 | ≥ 10000 | CN(C)[C@H]1CC[C@H](Nc2nc(N)nc3[nH]ccc23)CC1 [Compound I-8, 4-N-[4-(dimethylamino)cyclohexyl]-7H-pyrrolo[2,3-d]pyrimidine-2,4-diamine]
12 | ≥ 10000 | c1nc(O[C@H]2CC[C@H](N3CCOCC3)CC2)c2ccoc2n1 [Compound I-13, 4-(((trans)-4-morpholinocyclohexyl)oxy)furo[2,3-d]pyrimidine]
13 | 100 to 1000 | CN(C)[C@H]1CC[C@H](Nc2ncnc3[nH]cc(C#N)c23)CC1 [Compound I-1, 4-[[4-(dimethylamino)cyclohexyl]amino]-7H-pyrrolo[2,3-d]pyrimidine-5-carbonitrile]
